Measurements taken from patent US9944643B2, “Factor XIa inhibitors” (MERCK SHARP & DOHME CORP., priority 2014, dated 2018).

Each compound was assayed against purified human Factor XIa (Homo sapiens (Human), UniProt P03951) (assay: Factor XIa Assay).
Chain of purified human Factor XIa (P03951 whole entry, looked up): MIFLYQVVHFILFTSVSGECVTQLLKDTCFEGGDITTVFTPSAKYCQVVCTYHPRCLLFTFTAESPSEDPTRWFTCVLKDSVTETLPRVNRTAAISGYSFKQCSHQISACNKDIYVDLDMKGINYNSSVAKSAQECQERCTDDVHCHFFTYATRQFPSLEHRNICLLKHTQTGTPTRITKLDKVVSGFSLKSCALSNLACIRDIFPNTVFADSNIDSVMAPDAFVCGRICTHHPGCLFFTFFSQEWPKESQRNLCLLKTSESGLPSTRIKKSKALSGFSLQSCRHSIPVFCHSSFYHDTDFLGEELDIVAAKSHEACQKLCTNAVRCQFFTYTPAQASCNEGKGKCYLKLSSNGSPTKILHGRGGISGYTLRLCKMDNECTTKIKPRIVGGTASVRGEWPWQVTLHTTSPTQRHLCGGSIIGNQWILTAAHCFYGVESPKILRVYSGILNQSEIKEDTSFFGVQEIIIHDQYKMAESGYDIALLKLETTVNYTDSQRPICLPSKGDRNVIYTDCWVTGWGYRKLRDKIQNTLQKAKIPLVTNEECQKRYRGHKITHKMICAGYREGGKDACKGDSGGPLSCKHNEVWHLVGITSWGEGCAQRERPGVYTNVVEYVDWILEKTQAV
Chain of purified human Factor XIa (P03951 whole entry partner, looked up): as the sequence (P03951 whole entry, looked up) above
Assay type: biochemical
Experimental: The effectiveness a of compound of the present invention as an inhibitor of Coagulation Factor XIa can be determined using a relevant purified serine protease, and an appropriate synthetic substrate. The rate of hydrolysis of the chromogenic or fluorogenic substrate by the relevant serine protease was measured both in the absence and presence of compounds of the present invention. Assays were conducted at room temperature or at 37° C. […] A decrease in the rate of fluorescence change in the presence of inhibitor is indicative of enzyme inhibition. Such methods are known to one skilled in the art. The results of this assay are expressed as the inhibitory constant, Ki.
Factor XIa determinations were made in 50 mM HEPES buffer at pH 7.4 containing 150 mM NaCl, 5 mM CaCl2, and 0.1% PEG 8000 (polyethylene glycol; J T Baker or Fisher Scientific). Determinations were made using purified human Factor XIa at a final concentration of 40 pM (Sekisui Diagnostics) and the synthetic substrate, Z-Gly-Pro-Arg-AFC, TFA salt (Sigma #C0980) at a concentration of 100 μM.
Activity assays were performed by diluting a stock solution of substrate at least tenfold to a final concentration ≤0.1 Km into a solution containing enzyme or enzyme equilibrated with inhibitor. Times required to achieve equilibration between enzyme and inhibitor were determined in control experiments. Initial velocities of product formation in the absence (Vo) or presence of inhibitor (Vi) were measured. Assuming competitive inhibition, and that unity is negligible compared Km/[S], [I]/e, and [I]/e (where [S], [I], and e respectively represent the total concentrations, of substrate, inhibitor and enzyme), the equilibrium constant (Ki) for dissociation of the inhibitor from the enzyme can be obtained from the dependence of Vo/Vi on [I] shown in the following equation. Vo/Vi=1+[I]/Ki
`COC(=O)Nc1ccc2c(c1)NC(=O)CCCC[C@H](NC(=O)c1cnc(CN)c(C3CC3)c1)c1nc-2c[nH]1` [Example 2] showed a Ki of 1.1 nM.
Compound `COCCOC(=O)Nc1ccc2c(c1)NC(=O)[C@@H](C)CCC[C@H](NC(=O)c1ccc(CN)c(C3CC3)c1)c1cc-2ccn1` [Example 8] has a Ki of 0.1 nM.
`C[C@H]1CCC[C@H](NC(=O)c2ccc(CN)c(C3CC3)c2)c2cc(ccn2)-c2ccc(NC(=O)OC3CCCC3)cc2NC1=O` [Example 7] gave a Ki of 0.3 nM.
For `COC(=O)Nc1ccc2c(c1)NC(=O)CCCC[C@H](NC(=O)c1ccc(CN)c(C3CC3)c1)c1nc-2c(Cl)[nH]1` [Example 5], the Ki was 0.05 nM.
For `COC(=O)Nc1ccc2c(c1)N[C@@H](C(=O)O)CCCC[C@H](NC(=O)c1ccc(CN)c(C3CC3)c1)c1nc-2c[nH]1` [Example 3], the Ki was 0.1 nM.
`COC(=O)Nc1ccc2c(c1)NC(=O)CCCC[C@H](NC(=O)c1ccc(CN)c(C3CC3)c1)c1nc-2c[nH]1` [Example 1, Methyl [(7S)-7-({[4-(aminomethyl)-3-cyclopropylphenyl]carbonyl}amino)-2-oxo-1,2,3,4,5,6,7,9-octahydro-11,8-(azeno)-1,9-benzodiazacyclotridecin-14-yl]carbamate] was tested, and the Ki was 0.1 nM.
In the case of `CC(C)COC(=O)Nc1ccc2c(c1)NC(=O)[C@@H](C)CCC[C@H](NC(=O)c1ccc(CN)c(C3CC3)c1)c1cc-2ccn1` [Example 6], the Ki is reported as 0.2 nM.
`COC(=O)Nc1ccc2c(c1)NC(=O)[C@@H](C)CCC[C@H](NC(=O)c1ccc(CN)c(C3CC3)c1)c1cc-2ccn1` [Example 4] was tested, and the Ki was 0.03 nM.
